Test results: ChEMBL document CHEMBL4251592, “Recent advances in microtubule-stabilizing agents” (Eur J Med Chem, 2018)
pIC50: −log10 of the molar value. Converted amounts (≈) assume the structure as drawn.

Columns and labels:
[1] = system: SF-539; test: Growth inhibition of human SF539 cells incubated for 48 hrs by SRB assay; format: functional; settings: SF-539, 48 h
[2] = system: HCC 2998; test: Growth inhibition of human HCC2998 cells incubated for 48 hrs by SRB assay; format: functional; settings: HCC 2998, 48 h
[3] = system: HL-60; test: Growth inhibition of human HL60 cells incubated for 48 hrs by SRB assay; format: functional; settings: HL-60, 48 h
[4] = system: K562; test: Growth inhibition of human K562 cells incubated for 48 hrs by SRB assay; format: functional; settings: K562, 48 h
[5] = system: U-937; test: Cytotoxicity against human U937 cells incubated for 48 hrs by SRB assay; format: functional, cell-based; settings: U-937, 48 h
[6] = system: SKM-1; test: Cytotoxicity against human SKM1 cells incubated for 48 hrs by SRB assay; format: functional, cell-based; settings: SKM-1, 48 h

| SMILES | GI50 [1] [µg/mL] | GI50 [2] [µg/mL] | GI50 [3] [µg/mL] | GI50 [4] [µg/mL] | pIC50 [5] | pIC50 [6] |
| --- | --- | --- | --- | --- | --- | --- |
| C=C1C[C@@H]2C/C=C/C(=O)C/C(C)=C\C=C\C(=O)O[C@H](C=O)C/C(C)=C/[C@H](C1)O2 | 0.025 to 0.099 (≈ 0.065 to 0.257 µM) | 0.025 to 0.099 (≈ 0.065 to 0.257 µM) | 0.025 to 0.099 (≈ 0.065 to 0.257 µM) | 0.025 to 0.099 (≈ 0.065 to 0.257 µM) |  |  |
| C=C1C[C@@H]2C/C=C/C(=O)C/C(C)=C\C=C\C(=O)O[C@H]([C@H](O)NC(=O)/C=C\C=C\C)C/C(C)=C/[C@H](C1)O2 [ZAMPANOLIDE] |  |  |  |  | 8.54 to 8.96 | 8.54 to 8.96 |
